Test results from patent US20230085307A1, “PYRIDAZINONE COMPOUND AND HERBICIDE” (NISSAN CHEMICAL CORPORATION, priority 2019, published 2023).

Columns and labels:
velvetleaf = experiment: Test Example 4: herbicidal effect by soil treatment (Table 19, symbol M); format: in vivo, velvetleaf (Abutilon theophrasti); settings: amount of applied herbicide 320 g/ha
Procedure, shortened: (§1)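 Seeds were sown in sterilized diluvial soil and covered with about 1.5 cm of soil. An emulsion formulation diluted with water to a predetermined herbicide amount was sprayed evenly onto the soil surface. Plants grew in a greenhouse at 25° C. to 30° C., and the effect was scored three weeks after application using criteria from an earlier test.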

blackgrass [1] = experiment: Test Example 4: herbicidal effect by soil treatment (Table 19, symbol J); format: in vivo, blackgrass (Alopecurus myosuroides); settings: amount of applied herbicide 320 g/ha
Procedure, shortened: as §1

green foxtail = experiment: Test Example 4: herbicidal effect by soil treatment (Table 19, symbol G); format: in vivo, green foxtail (Setaria viridis); settings: amount of applied herbicide 320 g/ha
Procedure, shortened: as §1

oval-leafed pondweed = experiment: Test Example 2: herbicidal activity, application during weed generation under submerged conditions (Table 17, symbol C); format: in vivo, oval-leafed pondweed (Monochoria vaginalis); settings: AAH 320 g/ha; application during weed generation, submerged conditions
Procedure, shortened: (§2)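 Alluvial soil in Wagner pots was flooded to 4 cm depth and sown with the three weeds together; pots were kept in a greenhouse at 25° C. to 30° C. At the one to two leaf stage, an emulsion formulation diluted in water to a set rate went onto the water surface; scored three weeks later.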

chickweed [2] = experiment: Test Example 4: herbicidal effect by soil treatment (Table 19, symbol P); format: in vivo, common chickweed (Stellaria media); settings: amount of applied herbicide 320 g/ha
Procedure, shortened: as §1

wild oat [3] = experiment: Test Example 5: herbicidal effect by foliage application, plastic box (Table 20, symbol I); format: in vivo, wild oat (Avena fatua); settings: foliage application, 320 g/ha, three weeks after application
Procedure, shortened: (§3)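 Plants sown in sterilized diluvial soil and grown 14 days in a greenhouse at 25° C to 30° C, then sprayed on the foliage with the compound's emulsion diluted in water to a predetermined herbicide amount. Injury to weeds and crops scored three weeks after application on a visual rating scale.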

blackgrass [4] = experiment: Test Example 5: herbicidal effect by foliage application, plastic box (Table 20, symbol J); format: in vivo, blackgrass (Alopecurus myosuroides); settings: foliage application, 320 g/ha, three weeks after application
Procedure, shortened: as §3

rice flat sedge = experiment: Test Example 3: herbicidal effect by foliage application, Wagner pot (Table 18, symbol E); format: in vivo, rice flat sedge (Cyperus iria); settings: for herbicidal effect on E: rice flat sedge: amount of applied herbicide 320 g/ha; for herbicidal effect on rice flat sedge (E): 320 g/ha
Procedure, shortened: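 Plants were sown in alluvial soil held under 0.1–0.5 cm standing water and grown 14 days in a greenhouse at 25–30 °C. An emulsifiable formulation, water-diluted to the set dose, was then sprayed onto the foliage, and effects were scored three weeks later using previously defined criteria.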

late watergrass = experiment: Test Example 2: herbicidal activity, application during weed generation under submerged conditions (Table 17, symbol A); format: in vivo, late watergrass (Echinochloa oryzicola); settings: AAH 320 g/ha; application during weed generation, submerged conditions
Procedure, shortened: as §2

redroot pigweed [5] = experiment: Test Example 5: herbicidal effect by foliage application, plastic box (Table 20, symbol N); format: in vivo, redroot pigweed (Amaranthus retroflexus); settings: foliage application, 320 g/ha, three weeks after application
Procedure, shortened: as §3

redroot pigweed [6] = experiment: Test Example 4: herbicidal effect by soil treatment (Table 19, symbol N); format: in vivo, redroot pigweed (Amaranthus retroflexus); settings: amount of applied herbicide 320 g/ha
Procedure, shortened: as §1

Japanese bulrush [7] = experiment: Test Example 2: herbicidal activity, application during weed generation under submerged conditions (Table 17, symbol B); format: in vivo, Japanese bulrush (Schoenoplectus juncoides); settings: AAH 320 g/ha; application during weed generation, submerged conditions
Procedure, shortened: as §2

Japanese bulrush [8] = experiment: Test Example 1: herbicidal activity, application before weed generation under submerged conditions (Table 16, symbol B); format: in vivo, Japanese bulrush (Schoenoplectus juncoides); settings: amount of applied herbicide 320 g/ha
Procedure, shortened: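 Submerged Wagner pots (alluvial soil, 4 cm water) sown with weed seeds and planted with 2.5-leaf rice seedlings; emulsifiable concentrate diluted in water applied to water surface on sowing day. Held in greenhouse at 25-30 °C; injury scored 0-5 by herbicidal rate after three weeks.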

wild oat [9] = experiment: Test Example 4: herbicidal effect by soil treatment (Table 19, symbol I); format: in vivo, wild oat (Avena fatua); settings: amount of applied herbicide 320 g/ha
Procedure, shortened: as §1

southern crabgrass = experiment: Test Example 4: herbicidal effect by soil treatment (Table 19, symbol F); format: in vivo, southern crabgrass (Digitaria ciliaris); settings: amount of applied herbicide 320 g/ha
Procedure, shortened: as §1

barnyard grass = experiment: Test Example 5: herbicidal effect by foliage application, plastic box (Table 20, symbol H); format: in vivo, barnyard grass (Echinochloa crus-galli); settings: foliage application, 320 g/ha, three weeks after application
Procedure, shortened: as §3

chickweed [10] = experiment: Test Example 5: herbicidal effect by foliage application, plastic box (Table 20, symbol P); format: in vivo, common chickweed (Stellaria media); settings: foliage application, 320 g/ha, three weeks after application
Procedure, shortened: as §3

SMILES | M: velvetleaf, herbicidal effect grade (velvetleaf) | J: blackgrass, herbicidal effect grade (blackgrass [1]) | G: green foxtail, herbicidal effect grade (green foxtail) | herbicidal effect rating, C: oval-leafed pondweed (oval-leafed pondweed) | P: chickweed, herbicidal effect grade (chickweed [2]) | I: wild oat, herbicidal effect grade (wild oat [3]) | J: blackgrass, herbicidal effect grade (blackgrass [4]) | herbicidal effect on E: rice flat sedge (rice flat sedge) | herbicidal effect rating, A: late watergrass (late watergrass) | N: redroot pigweed, herbicidal effect grade (redroot pigweed [5]) | N: redroot pigweed, herbicidal effect grade (redroot pigweed [6]) | herbicidal effect rating, B: Japanese bulrush (Japanese bulrush [7]) | Herbicidal effect, B: Japanese bulrush (Japanese bulrush [8]) | I: wild oat, herbicidal effect grade (wild oat [9]) | F: southern crabgrass, herbicidal effect grade (southern crabgrass) | H: barnyard grass, herbicidal effect grade (barnyard grass) | P: chickweed, herbicidal effect grade (chickweed [10]) | herbicidal effect on rice flat sedge (E) (rice flat sedge)
COc1ccccc1-c1sc2cc(F)ccc2c1-c1c(OS(=O)(=O)c2ccc(C)cc2)c(C)nn(C)c1=O [3-027] | 0 (Herbicidal rate of 5% or less (almost no effect)) | 3 (Herbicidal rate of 40% or more and less than 70%) | 0 (Herbicidal rate of 5% or less (almost no effect)) | 3 (Herbicidal rate of 40% or more and less than 70%) | 0 (Herbicidal rate of 5% or less (almost no effect)) | 3 (Herbicidal rate of 40% or more and less than 70%) | 4 (Herbicidal rate of 70% or more and less than 90%) | 5 (Herbicidal rate of 90% or more (almost completely withered)) | 3 (Herbicidal rate of 40% or more and less than 70%) | 5 (Herbicidal rate of 90% or more (almost completely withered)) | 0 (Herbicidal rate of 5% or less (almost no effect)) | 2 (Herbicidal rate of 20% or more and less than 40%) | 3 (Herbicidal rate of 40% or more and less than 70%) | 0 (Herbicidal rate of 5% or less (almost no effect)) | 0 (Herbicidal rate of 5% or less (almost no effect)) | 5 (Herbicidal rate of 90% or more (almost completely withered)) | 3 (Herbicidal rate of 40% or more and less than 70%) | 
COc1ccccc1-c1sc2cc(F)ccc2c1-c1c(OS(=O)(=O)N(C)C)c(C)nn(C)c1=O [3-028] | 0 (Herbicidal rate of 5% or less (almost no effect)) | 0 (Herbicidal rate of 5% or less (almost no effect)) | 0 (Herbicidal rate of 5% or less (almost no effect)) | 0 (Herbicidal rate of 5% or less (almost no effect)) | 0 (Herbicidal rate of 5% or less (almost no effect)) | 0 (Herbicidal rate of 5% or less (almost no effect)) | 4 (Herbicidal rate of 70% or more and less than 90%) | 5 (Herbicidal rate of 90% or more (almost completely withered)) | 2 (Herbicidal rate of 20% or more and less than 40%) | 5 (Herbicidal rate of 90% or more (almost completely withered)) | 0 (Herbicidal rate of 5% or less (almost no effect)) | 0 (Herbicidal rate of 5% or less (almost no effect)) | 0 (Herbicidal rate of 5% or less (almost no effect)) | 0 (Herbicidal rate of 5% or less (almost no effect)) | 0 (Herbicidal rate of 5% or less (almost no effect)) | 2 (Herbicidal rate of 20% or more and less than 40%) | 5 (Herbicidal rate of 90% or more (almost completely withered)) | 
CCCC(=O)Oc1c(C)nn(C)c(=O)c1-c1c(-c2ccc(Cl)cc2)sc2cc(Cl)ccc12 [3-034] | 3 (Herbicidal rate of 40% or more and less than 70%) | 0 (Herbicidal rate of 5% or less (almost no effect)) | 0 (Herbicidal rate of 5% or less (almost no effect)) | 0 (Herbicidal rate of 5% or less (almost no effect)) | 3 (Herbicidal rate of 40% or more and less than 70%) | 3 (Herbicidal rate of 40% or more and less than 70%) | 4 (Herbicidal rate of 70% or more and less than 90%) |  | 3 (Herbicidal rate of 40% or more and less than 70%) | 4 (Herbicidal rate of 70% or more and less than 90%) | 3 (Herbicidal rate of 40% or more and less than 70%) | 0 (Herbicidal rate of 5% or less (almost no effect)) | 3 (Herbicidal rate of 40% or more and less than 70%) | 0 (Herbicidal rate of 5% or less (almost no effect)) | 0 (Herbicidal rate of 5% or less (almost no effect)) | 3 (Herbicidal rate of 40% or more and less than 70%) | 5 (Herbicidal rate of 90% or more (almost completely withered)) | 5 (Herbicidal rate of 90% or more (almost completely withered))
CCOc1ccccc1-c1sc2cc(Cl)ccc2c1-c1c(O)c(C)nn(C)c1=O [3-039] | 3 (Herbicidal rate of 40% or more and less than 70%) | 0 (Herbicidal rate of 5% or less (almost no effect)) | 4 (Herbicidal rate of 70% or more and less than 90%) | 0 (Herbicidal rate of 5% or less (almost no effect)) | 5 (Herbicidal rate of 90% or more (almost completely withered)) | 1 (Herbicidal rate of 5% or more and less than 20%) | 4 (Herbicidal rate of 70% or more and less than 90%) |  | 2 (Herbicidal rate of 20% or more and less than 40%) | 4 (Herbicidal rate of 70% or more and less than 90%) | 4 (Herbicidal rate of 70% or more and less than 90%) | 2 (Herbicidal rate of 20% or more and less than 40%) | 1 (Herbicidal rate of 5% or more and less than 20%) | 0 (Herbicidal rate of 5% or less (almost no effect)) | 5 (Herbicidal rate of 90% or more (almost completely withered)) | 5 (Herbicidal rate of 90% or more (almost completely withered)) | 5 (Herbicidal rate of 90% or more (almost completely withered)) | 5 (Herbicidal rate of 90% or more (almost completely withered))
CCCC(=O)Oc1c(C)nn(C)c(=O)c1-c1c(-c2ccccc2OCC)sc2cc(Cl)ccc12 [3-040] | 3 (Herbicidal rate of 40% or more and less than 70%) | 0 (Herbicidal rate of 5% or less (almost no effect)) | 2 (Herbicidal rate of 20% or more and less than 40%) | 3 (Herbicidal rate of 40% or more and less than 70%) | 4 (Herbicidal rate of 70% or more and less than 90%) | 1 (Herbicidal rate of 5% or more and less than 20%) | 5 (Herbicidal rate of 90% or more (almost completely withered)) |  | 2 (Herbicidal rate of 20% or more and less than 40%) | 5 (Herbicidal rate of 90% or more (almost completely withered)) | 4 (Herbicidal rate of 70% or more and less than 90%) | 2 (Herbicidal rate of 20% or more and less than 40%) | 3 (Herbicidal rate of 40% or more and less than 70%) | 0 (Herbicidal rate of 5% or less (almost no effect)) | 1 (Herbicidal rate of 5% or more and less than 20%) | 5 (Herbicidal rate of 90% or more (almost completely withered)) | 5 (Herbicidal rate of 90% or more (almost completely withered)) | 5 (Herbicidal rate of 90% or more (almost completely withered))
